Key:
ssDNA = assay: Microplate fluorescence when bound to ssDNA; assay type: binding; conditions: for Ratio to R1, fluorescent emission with ssDNA / fluorescent emission with ssDNA: 500 ng/mL ssDNA; for ssDNA emission: text says 10 ng/μL
Experimental: The compounds from FIG. 1 were also characterized with respect to their fluorescence enhancement when bound to ssDNA. The compounds from FIG. 1, R1 and R2 were tested in triplicate. 190 μL of 1 μM compound in 1× Tris-EDTA pH7.5, 0.01% CHAPS was added to 10 μL of 4 different concentrations of ssDNA in wells of 96 well Costar black, clear bottom microplates. Plates were read on a SpectraFluor multifunction microplate reader (Tecan) at 491 nm excitation and 520 nm emission. Fluorescence data with ssDNA are shown in FIG. 3 for the different tested compounds.
Next, the compounds were compared for their fluorescence enhancement when bound to ssDNA as described in Example 1. Fluorescence data with ssDNA are shown in FIG. 6 for the different tested compounds.

dsDNA = assay: Microplate fluorescence when bound to dsDNA; assay type: binding; conditions: 500 ng/mL dsDNA
Experimental: Compounds were tested in triplicate for fluorescence enhancement when bound to dsDNA. 190 μL of 1 μM compound in 1× Tris-EDTA, pH 7.5, 0.01% CHAPS was added to 10 μL of 4 different concentrations of dsDNA (0, 25 ng/mL, 200 ng/mL, and 500 ng/mL) in wells of 96 well Costar black, clear bottom microplates. Plates were read on a SpectraFluor multifunction microplate reader (Tecan) at 491 nm excitation and 520 nm emission.
Compounds were tested for fluorescence enhancement when bound to dsDNA as described in Example 3. Fluorescence data with dsDNA are shown in FIG. 5 for the different tested compounds.

dsDNA versus ssDNA = assay: In vitro selectivity dsDNA versus ssDNA; assay type: binding
Experimental: Six compounds (2, 34, 35, 41, 42, and 48) were characterized in in vitro selectivity experiments for double-stranded DNA (dsDNA) versus single-stranded DNA (ssDNA). These compounds were compared against comparative compounds R^1 and R^2.
For each individual compound, the dsDNA and ssDNA fluorescence emission at 10 ng/μL was compared to evaluate in vitro selectivity for dsDNA/ssDNA, as shown in FIG. 4.
Further in vitro selectivity experiments for double-stranded DNA (dsDNA) versus single-stranded DNA (ssDNA) were performed using the methods outlined in Example 3 to compare compounds 2, 34, 41, 42, and 48 to comparative compounds R1 and R2.
For each individual compound, the dsDNA and ssDNA fluorescence emission at 10 ng/μL was calculated to estimate in vitro selectivity, as shown in FIG. 7.

[1] = UV/VIS absorption spectra; assay type: physicochemical; conditions: 10 μM compound in 50 mM potassium phosphate buffer (pH 7.0)
Experimental: The UV/VIS absorption spectra were obtained with 10 μM compound solution in 50 mM potassium phosphate buffer (pH 7.0) in a final volume of 3 mL. Measurements were carried out using a Lambda 245 spectrophotometer from Perkin Elmer.

calf thymus DNA = assay: Fluorescence emission and enhancement of compounds bound to calf thymus DNA; assay type: binding; conditions: 0.8 μM compound with 500 ng/ml calf thymus DNA in TE buffer; for Emission Max: excited at 488 nm; for Fluorescence Enhancement: emission area 500-715 nm compared to compound 1, defined as 1000-fold
Experimental: Compounds 1-65 were prepared and their fluorescence absorption and emission characteristics were measured. Intrinsic fluorescence of the compounds only (without DNA) was negligible. Emission spectra for the compounds bound to dsDNA were obtained by incubating 0.8 μM compound with 500 ng/ml calf thymus DNA in TE buffer (10 mM Tris-HCl, pH 7.5, 1 mM EDTA) in a final volume of 3 ml. Measurements were made using PerkinElmer LS 55 (F-11) Fluorescence spectrometer. Samples were excited at 488 nm and fluorescence emission was measured with emission slit widths of 2.5 nm. Absorption maxima were determined according to standard techniques.
Fluorescence enhancement measurements of the compounds were obtained by incubating 0.8 μM compound with 500 ng/ml calf thymus DNA with compounds at a final concentration of 0.8 μM in TE buffer. Compound 1 was used as an internal standard to control for variability (e.g., in excitation light intensity). The area-under-curve of fluorescence emission spectra from 500 nm to 715 nm was calculated, and compared to that of compound 1, which was defined as having 1000-fold fluorescence enhancement relative to fluorescence of the compound alone.

[2] = Example 3, Table 3, 1 μM compound, 491 nm excitation, 520 nm emission
[3] = Example 3, Table 4, FIG. 4 says 500 ng/mL
[4] = Example 4, Table 7, FIG. 7 says 500 ng/mL
[5] = Example 3, Table 2, 1 μM compound, 491 nm excitation, 520 nm emission

For `CN(C)CCCN(CCCN(C)C)C1=CC(=Cc2sc3ccccc3[n+]2C)c2ccccc2N1c1ccccc1.[I-]` [Compound R1, reference compound], the “Ratio to R1, fluorescent emission with ssDNA” value (shortened to “Ratio to R1 … with ssDNA”) (ssDNA; Example 3, Table 3) was 1.0, the “fluorescent emission with ssDNA” value (ssDNA; [2]) was 1081 and the ssDNA emission (ssDNA; [3]) was 1081. For the same molecule, the “fluorescent emission with ssDNA” value (ssDNA; Example 4, Table 6) was 1080, the ssDNA emission (ssDNA; [4]) was 1080 and the “Ratio to R1, fluorescent emission with dsDNA” value (“Ratio to R1 … with dsDNA” for short) (dsDNA; Example 3, Table 2) was 1.00. The “fluorescent emission with dsDNA” value (dsDNA; [5]) was 5441, the “Ratio to R1 … with dsDNA” value (dsDNA; Example 4, Table 5) was 1.0 and the “fluorescent emission with dsDNA” value (dsDNA; Example 4, Table 5) was 5887. For the same molecule, the “ratio of dsDNA emission versus ssDNA emission” value (dsDNA versus ssDNA; Example 3, Table 4) was 5.0 and the “ratio of dsDNA emission versus ssDNA emission” value (dsDNA versus ssDNA; Example 4, Table 7) was 5.5.

For `CCCCN(CCCN(C)C)C1=CC(=Cc2sc3ccccc3[n+]2C)c2ccc(OC)cc2N1c1ccccc1.[I-]` [Compound 34], the “Ratio to R1 … with ssDNA” value (ssDNA; Example 3, Table 3) was 2.4, the “fluorescent emission with ssDNA” value (ssDNA; [2]) was 2578 and the ssDNA emission (ssDNA; [3]) was 2578. For the same molecule, the “fluorescent emission with ssDNA” value (ssDNA; Example 4, Table 6) was 2603, the ssDNA emission (ssDNA; [4]) was 2603 and the “Ratio to R1 … with dsDNA” value (dsDNA; Example 3, Table 2) was 1.92. For the same molecule, the “fluorescent emission with dsDNA” value (dsDNA; [5]) was 10452, the “Ratio to R1 … with dsDNA” value (dsDNA; Example 4, Table 5) was 2.1 and the “fluorescent emission with dsDNA” value (dsDNA; Example 4, Table 5) was 12434. For the same molecule, the “Absorbance Max” value [1] was 488 nm, the “ratio of dsDNA emission versus ssDNA emission” value (dsDNA versus ssDNA; Example 3, Table 4) was 4.1 and the “ratio of dsDNA emission versus ssDNA emission” value (dsDNA versus ssDNA; Example 4, Table 7) was 4.8. The “Emission Max” value (calf thymus DNA) was 517 nm and the “Fluorescence Enhancement” value (calf thymus DNA) was 1071 fold.

For `CCCN(CCC[N+](C)(C)C)C1=CC(=Cc2sc3ccccc3[n+]2C)c2ccccc2N1c1ccccc1.[Cl-].[I-]` [Compound 2], the “Ratio to R1 … with ssDNA” value (ssDNA; Example 3, Table 3) was 1.6, the “fluorescent emission with ssDNA” value (ssDNA; [2]) was 1773 and the ssDNA emission (ssDNA; [3]) was 1773. The “fluorescent emission with ssDNA” value (ssDNA; Example 4, Table 6) was 1767, the ssDNA emission (ssDNA; [4]) was 1767 and the “Ratio to R1 … with dsDNA” value (dsDNA; Example 3, Table 2) was 1.74. The “fluorescent emission with dsDNA” value (dsDNA; [5]) was 9494, the “Ratio to R1 … with dsDNA” value (dsDNA; Example 4, Table 5) was 1.8 and the “fluorescent emission with dsDNA” value (dsDNA; Example 4, Table 5) was 10339. For the same molecule, the “Absorbance Max” value [1] was 501 nm, the “ratio of dsDNA emission versus ssDNA emission” value (dsDNA versus ssDNA; Example 3, Table 4) was 5.4 and the “ratio of dsDNA emission versus ssDNA emission” value (dsDNA versus ssDNA; Example 4, Table 7) was 5.9. For the same molecule, the “Emission Max” value (calf thymus DNA) was 523 nm and the “Fluorescence Enhancement” value (calf thymus DNA) was 964 fold.

In the case of `CCN(CCCN(C)C)C1=CC(=Cc2sc3ccccc3[n+]2C)c2ccc(OC)cc2N1c1ccccc1.[I-]` [Compound 48], the “Ratio to R1 … with ssDNA” value (ssDNA; Example 3, Table 3) is reported as 2.5, the “fluorescent emission with ssDNA” value (ssDNA; [2]) is reported as 2739 and the ssDNA emission (ssDNA; [3]) is reported as 2739. For the same molecule, the “fluorescent emission with ssDNA” value (ssDNA; Example 4, Table 6) was 2477, the ssDNA emission (ssDNA; [4]) was 2477 and the “Ratio to R1 … with dsDNA” value (dsDNA; Example 3, Table 2) was 1.72. The “fluorescent emission with dsDNA” value (dsDNA; [5]) was 9350, the “Ratio to R1 … with dsDNA” value (dsDNA; Example 4, Table 5) was 1.9 and the “fluorescent emission with dsDNA” value (dsDNA; Example 4, Table 5) was 11400. The “Absorbance Max” value [1] was 489 nm, the “ratio of dsDNA emission versus ssDNA emission” value (dsDNA versus ssDNA; Example 3, Table 4) was 3.4 and the “ratio of dsDNA emission versus ssDNA emission” value (dsDNA versus ssDNA; Example 4, Table 7) was 4.6. For the same molecule, the “Emission Max” value (calf thymus DNA) was 520 nm and the “Fluorescence Enhancement” value (calf thymus DNA) was 1016 fold.

With `CCCCN(CCC[N+](C)(C)C)C1=CC(=Cc2sc3ccccc3[n+]2C)c2ccc(OC)cc2N1c1ccccc1.[I-].[I-]` [Compound 35] the “Ratio to R1 … with ssDNA” value (ssDNA; Example 3, Table 3) was 2.3, the “fluorescent emission with ssDNA” value (ssDNA; [2]) was 2515 and the ssDNA emission (ssDNA; [3]) was 2515. The “Ratio to R1 … with dsDNA” value (dsDNA; Example 3, Table 2) was 2.05, the “fluorescent emission with dsDNA” value (dsDNA; [5]) was 11136 and the “Absorbance Max” value [1] was 489 nm. For the same molecule, the “ratio of dsDNA emission versus ssDNA emission” value (dsDNA versus ssDNA; Example 3, Table 4) was 4.4, the “Emission Max” value (calf thymus DNA) was 518 nm and the “Fluorescence Enhancement” value (calf thymus DNA) was 1069 fold.

For `CCCN(CCCN(C)C)C1=CC(=Cc2sc3ccccc3[n+]2C)c2ccc(OC)cc2N1c1ccccc1.[I-]` [Compound 41], the “Ratio to R1 … with ssDNA” value (ssDNA; Example 3, Table 3) was 2.7, the “fluorescent emission with ssDNA” value (ssDNA; [2]) was 2878 and the ssDNA emission (ssDNA; [3]) was 2878. For the same molecule, the “fluorescent emission with ssDNA” value (ssDNA; Example 4, Table 6) was 2814, the ssDNA emission (ssDNA; [4]) was 2814 and the “Ratio to R1 … with dsDNA” value (dsDNA; Example 3, Table 2) was 1.83. For the same molecule, the “fluorescent emission with dsDNA” value (dsDNA; [5]) was 9936, the “Ratio to R1 … with dsDNA” value (dsDNA; Example 4, Table 5) was 1.9 and the “fluorescent emission with dsDNA” value (dsDNA; Example 4, Table 5) was 11424. The “Absorbance Max” value [1] was 493 nm, the “ratio of dsDNA emission versus ssDNA emission” value (dsDNA versus ssDNA; Example 3, Table 4) was 3.5 and the “ratio of dsDNA emission versus ssDNA emission” value (dsDNA versus ssDNA; Example 4, Table 7) was 4.1. The “Emission Max” value (calf thymus DNA) was 517 nm and the “Fluorescence Enhancement” value (calf thymus DNA) was 1020 fold.

For `CCCN(CCC[N+](C)(C)C)C1=CC(=Cc2sc3ccccc3[n+]2C)c2ccc(OC)cc2N1c1ccccc1.[I-].[I-]` [Compound 42], the “Ratio to R1 … with ssDNA” value (ssDNA; Example 3, Table 3) was 2.8, the “fluorescent emission with ssDNA” value (ssDNA; [2]) was 3017 and the ssDNA emission (ssDNA; [3]) was 3017. For the same molecule, the “fluorescent emission with ssDNA” value (ssDNA; Example 4, Table 6) was 3078, the ssDNA emission (ssDNA; [4]) was 3078 and the “Ratio to R1 … with dsDNA” value (dsDNA; Example 3, Table 2) was 2.00. For the same molecule, the “fluorescent emission with dsDNA” value (dsDNA; [5]) was 10860, the “Ratio to R1 … with dsDNA” value (dsDNA; Example 4, Table 5) was 2.3 and the “fluorescent emission with dsDNA” value (dsDNA; Example 4, Table 5) was 13580. For the same molecule, the “Absorbance Max” value [1] was 494 nm, the “ratio of dsDNA emission versus ssDNA emission” value (dsDNA versus ssDNA; Example 3, Table 4) was 3.6 and the “ratio of dsDNA emission versus ssDNA emission” value (dsDNA versus ssDNA; Example 4, Table 7) was 4.4. The “Emission Max” value (calf thymus DNA) was 519 nm and the “Fluorescence Enhancement” value (calf thymus DNA) was 1070 fold.

With `COc1ccc2c(c1)N(c1ccccc1)C(N(CCC[N+](C)(C)C)CCC[N+](C)(C)C)=CC2=Cc1sc2ccccc2[n+]1C.I` [Compound R2, reference compound] the “Ratio to R1 … with ssDNA” value (ssDNA; Example 3, Table 3) was 1.5, the “fluorescent emission with ssDNA” value (ssDNA; [2]) was 1669 and the ssDNA emission (ssDNA; [3]) was 1669. For the same molecule, the “fluorescent emission with ssDNA” value (ssDNA; Example 4, Table 6) was 1512, the ssDNA emission (ssDNA; [4]) was 1512 and the “Ratio to R1 … with dsDNA” value (dsDNA; Example 3, Table 2) was 1.59. The “fluorescent emission with dsDNA” value (dsDNA; [5]) was 8627, the “Ratio to R1 … with dsDNA” value (dsDNA; Example 4, Table 5) was 1.7 and the “fluorescent emission with dsDNA” value (dsDNA; Example 4, Table 5) was 9941. For the same molecule, the “ratio of dsDNA emission versus ssDNA emission” value (dsDNA versus ssDNA; Example 3, Table 4) was 5.2 and the “ratio of dsDNA emission versus ssDNA emission” value (dsDNA versus ssDNA; Example 4, Table 7) was 6.6.
